The test system of data set [1] is hepatic gene expression. Nature of the data set: Real-time RT-PCR of hepatic mRNA after 13-week exposure: TCDD 100, PeCDF 200, PCB126 1,000 ng/kg/day, PCB153 1,000 μg/kg/day. It counts as in vivo, female Harlan Sprague-Dawley rats. The note with it: liver, 13 weeks; average (± 1 SD) of three RNA pools; normalized to 18S RNA. Here is the method: Tissues for this study were provided by the NTP ([NTP 2004a], [2004b], [2004c]) as part of a 2-year bioassay for relative carcinogenic potencies of dioxin-like chemicals. […] Toxicologic dose equivalence was based on the current World Health Organization TEF recommendations ([Van den Berg et al. 1998]). Subgroups of rats were sacrificed at 14, 31, and 53 weeks (corresponding to 13, 30, or 52 weeks of exposure), and target organs were removed, flash frozen in liquid nitrogen, and stored at −70°C for mechanistic studies.
Frozen hepatic tissue was disrupted by homogenization with a rotor stator homogenizer, and total RNA was isolated with Qiagen RNeasy columns Qiagen Inc., Valencia, CA). There were a total of six rats in each exposure group. Three pools of RNA were created from each exposure group (n = 2 rats per pool), similar to the experimental design of [Yechoor et al. (2002)]. Pooled total RNA was further purified using the Qiagen poly(A) RNA isolation kit. RNA integrity was assessed by the Agilent Bioanalyzer 2100 (Agilent Technologies, Palo Alto, CA). […] Poly(A) RNA was transformed into labeled cRNA by the Roswell Park Cancer Institute Microarray and Genomics Core Facility (Buffalo, NY). cRNA from each pool was fragmented and its quality evaluated with Affymetrix GeneChip Test3 arrays (Santa Clara, CA) by comparing 3′:5′ signal ratios of housekeeping genes. High-quality cRNA (3′:5′ signal ratio near 1) was subsequently hybridized to Affymetrix RGU34A GeneChips, and chips were scanned with the Affymetrix 428 scanner.
Reverse transcriptase reactions (80 μL) contained 20 μg total RNA, 0.5 mM dNTP mix, and 15 ng/μL random primers, 1 × first-strand buffer, 10 mM dithiothreitol, 27 U Rnasin RNase inhibitor (Promega, Madison, WI), and 800 U superscript reverse transcriptase (Invitrogen). A mixture containing total RNA, dNTPs, and random primers was heated to 65°C for 5 min to denature the RNA and then immediately placed on ice. The remaining components of the reaction mixture were then added to the RNA, and cDNA synthesis was performed at 42°C for 60 min. Reactions were terminated by heating to 70°C for 10 min.
PCR primers were selected from GenBank database sequences with Primer3 software ([Rozen and Skaletsky 2000]). […] Nonspecific mispriming was managed by a mispriming threshold of 10.0 in the rodent mispriming library.
Real-time PCR was performed with the SYBR Green PCR kit from Applied Biosystems (Foster City, CA) according to the manufacturer’s instructions. PCR reactions (25 μL) contained diluted cDNA, 1 × SYBR Green buffer, 3 mM MgCl2, 0.2 mM dNTP mix, 0.2 μM left and right primers, 10 nM fluorescein, and 1.1 U of Amplitaq Gold polymerase. The reaction was initiated by incubation at 95°C for 10 min and followed by 40 cycles of denaturation at 95°C for 15 sec and primer annealing/extension at 60°C for 1 min. Sample fluorescence was evaluated during the annealing/extension step. Upon completion of thermocycling, the specificity of each reaction was evaluated by melting analysis. Samples were heated to 95°C for 2 min and cooled to 55°C. The temperature was maintained at 55°C for 15 sec to analyze sample fluorescence, and the temperature was increased by increments of 0.5°C followed by 15 sec of fluorescence analysis for a total of 80 cycles.
The efficiency of each primer set was validated over a range of cDNA concentrations. […] After primer validation, PCR reactions were performed with a single cDNA concentration, and the threshold cycle (Ct) was determined for each reaction. The difference (ΔCt) between the threshold cycle for the target gene and endogenous control gene (18S RNA) was calculated for each sample, and the 18S normalized relative expression of each gene was calculated by the comparative method according to the Applied Biosystems’ User Bulletin No. 2 for the ABI Prism Sequence Detection System (Applied Biosystems), as described by [Imasato et al. (2002)].

Data set [2] relates to hepatic gene expression. The settings on record: liver, 13 weeks; average (± 1 SD) of three GeneChips.
Data set [3] concerns liver. The settings on record: TCDD 100, PeCDF 200, PCB126 1,000 ng/kg/day, ref NTP 2004a, 2004b, 2004c; cited from earlier work.
The conditions of data set [4]: 13 weeks; mean ±SD of 10 rats; TCDD 100, PeCDF 200, PCB126 1,000 ng/kg/day, PCB153 1,000 μg/kg/day; ref NTP 2004a, 2004b, 2004c; cited from earlier work.
The test system of data set [5] is liver. The note with it: 13 weeks, ref NTP 2004a, 2004b, 2004c, cited from earlier work; for Liver hypertrophy, incidence (number of rats of 10): TCDD 100, PeCDF 200, PCB126 1,000 ng/kg/day, PCB153 1,000 μg/kg/day; for Liver hypertrophy, severity in words: highest dose of each compound; for Liver hypertrophy, mean severity score: 1, minimal, 2, mild, 3, moderate, 4, marked.

Where [6] appears, read: same doses, 1, minimal to 4, marked.

For the molecule `Clc1ccc(-c2cc(Cl)c(Cl)c(Cl)c2)cc1Cl` [PCB126, 3,3′,4,4′,5-pentachlorobiphenyl], in data set [1], the “C-CAM4 mRNA, average change vs vehicle, RT-PCR” value was 3.5 (2.6 to 4.7); the “CAP2 mRNA, average change vs vehicle, RT-PCR” value was 119.4 (104 to 137.2); the “CES3 mRNA, average change vs vehicle, RT-PCR” value was −1.4 (−1.5 to −1.3); the “CYP1B1 mRNA, average change vs vehicle, RT-PCR” value is 106.4 (98.2 to 115.3). Further, in data set [1], the “CYP3A9 mRNA, average change vs vehicle, RT-PCR” value is listed as −28.5 (−30.2 to −26.9); the “SERPIN7A mRNA, average change vs vehicle, RT-PCR” value is on record as −8.4 (−12 to −5.9); the “SST mRNA, average change vs vehicle, RT-PCR” value was −1.5 (−1.6 to −1.4). Further, in data set [2], the “C-CAM4 mRNA, average change vs vehicle, Microarray” value is 25.1 (4 to 46.2); the “CAP2 mRNA, average change vs vehicle, Microarray” value is listed as 7.6 (2 to 13.2); the “CES3 mRNA, average change vs vehicle, Microarray” value was −4 (−4.4 to −3.6); the “CYP1B1 mRNA, average change vs vehicle, Microarray” value is recorded as 317.1 (41.1 to 593.1). For the same molecule, in data set [2], the “SERPIN7A mRNA, average change vs vehicle, Microarray” value is given as −4 (−4.9 to −3.1) and the “SST mRNA, average change vs vehicle, Microarray” value is listed as −6.4 (−9.4 to −3.4). In addition, the “liver findings after 2 years of exposure” value in data set [3] was “cholangiocarcinoma, hepatocellular adenoma, toxic hepatopathy, multinucleated hepatocytes, diffuse fatty change, and liver pigmentation”. Also, in data set [4], the Liver levels is recorded as 412.6 ± 73.5 ng/g. Moreover, in data set [5], the “Liver hypertrophy, incidence (number of rats of 10)” value (from here on “Liver hypertrophy, incidence”) is on record as 10 and the “Liver hypertrophy, severity in words” value is listed as “minimal to mild”. Besides, in data set [5] (same doses), the “Liver hypertrophy, mean severity score” value is reported as 1.7; the “Diffuse fatty change, incidence (number of rats of 10)” value (shortened to “Diffuse fatty change, incidence”) is 0; the “Multinucleated hepatocytes, incidence (number of rats of 10)” value (shortened to “Multinucleated hepatocytes, incidence”) is listed as 0; the “Pigmentation, incidence (number of rats of 10)” value (“Pigmentation, incidence” for short) was 0.

As for `Clc1cc(Cl)c(-c2cc(Cl)c(Cl)cc2Cl)cc1Cl` [PCB153, 2,2′,4,4′,5,5′-hexachlorobiphenyl], in data set [1], the “C-CAM4 mRNA, average change vs vehicle, RT-PCR” value is −1.1 (−1.3 to 1); the “CAP2 mRNA, average change vs vehicle, RT-PCR” value is listed as −1.3 (−1.5 to −1.1); the “CES3 mRNA, average change vs vehicle, RT-PCR” value is listed as 2.4 (2.1 to 2.6); the “CYP1B1 mRNA, average change vs vehicle, RT-PCR” value is given as −1.2 (−1.6 to 1). In data set [1], the “CYP3A9 mRNA, average change vs vehicle, RT-PCR” value is −1.8 (−2.1 to −1.5); the “SERPIN7A mRNA, average change vs vehicle, RT-PCR” value was −1.2 (−1.5 to 1); the “SST mRNA, average change vs vehicle, RT-PCR” value is recorded as −3 (−3.5 to −2.5). Moreover, in data set [2], the “CES3 mRNA, average change vs vehicle, Microarray” value is given as 1.3 (1 to 1.6); the “CYP1B1 mRNA, average change vs vehicle, Microarray” value was 2.1 (1 to 3.2); the “CYP3A9 mRNA, average change vs vehicle, Microarray” value is recorded as 1.6 (0.8 to 2.4); the “SERPIN7A mRNA, average change vs vehicle, Microarray” value is 1.6 (1.3 to 1.9). Besides, the “SST mRNA, average change vs vehicle, Microarray” value in data set [2] is −9.5 (−10.1 to −8.9). Further, the Liver levels in data set [4] is given as 9,250 ± 2,061 ng/g. In addition, in data set [5], the “Liver hypertrophy, incidence” value is 9 and the “Liver hypertrophy, severity in words” value was “minimal”. Also, in data set [5] (same doses), the “Liver hypertrophy, mean severity score” value was 1.2; the “Diffuse fatty change, incidence” value is listed as 0; the “Multinucleated hepatocytes, incidence” value is given as 0; the “Pigmentation, incidence” value was 0.

On to `Clc1cc2oc3c(Cl)c(Cl)c(Cl)cc3c2cc1Cl` [PeCDF, 2,3,4,7,8-pentachlorodibenzofuran], for which, in data set [1], the “C-CAM4 mRNA, average change vs vehicle, RT-PCR” value is 2.5 (2.3 to 2.7); the “CAP2 mRNA, average change vs vehicle, RT-PCR” value is 20.2 (17.8 to 22.9); the “CYP1B1 mRNA, average change vs vehicle, RT-PCR” value is 59.7 (48.3 to 73.8); the “CYP3A9 mRNA, average change vs vehicle, RT-PCR” value is listed as −4.2 (−5 to −3.5). In addition, in data set [1], the “SERPIN7A mRNA, average change vs vehicle, RT-PCR” value is on record as −29.9 (−32 to −27.9) and the “SST mRNA, average change vs vehicle, RT-PCR” value is recorded as −1.6 (−2 to −1.2). In data set [2], the “C-CAM4 mRNA, average change vs vehicle, Microarray” value is listed as 37.4 (25.5 to 49.3); the “CAP2 mRNA, average change vs vehicle, Microarray” value is listed as 10.9 (4 to 17.8); the “CES3 mRNA, average change vs vehicle, Microarray” value is −2.8 (−3.8 to −1.8); the “CYP1B1 mRNA, average change vs vehicle, Microarray” value is recorded as 493.3 (310.1 to 676.5). In addition, in data set [2], the “CYP3A9 mRNA, average change vs vehicle, Microarray” value is −2.3 (−3.3 to −1.3); the “SERPIN7A mRNA, average change vs vehicle, Microarray” value was −2.7 (−3.6 to −1.8); the “SST mRNA, average change vs vehicle, Microarray” value is −8.3 (−11.1 to −5.5). Moreover, the Liver levels in data set [4] is on record as 132.9 ± 47.4 ng/g. For the same molecule, the “Multinucleated hepatocytes, incidence” value in data set [5] (same doses) was 0.

Regarding `Clc1cc2c(cc1Cl)Oc1cc(Cl)c(Cl)cc1O2` [TCDD, 2,3,7,8-tetrachlorodibenzo-p-dioxin], in data set [1], the “C-CAM4 mRNA, average change vs vehicle, RT-PCR” value was 4.1 (3.8 to 4.4); the “CAP2 mRNA, average change vs vehicle, RT-PCR” value was 168.9 (147.9 to 192.9); the “CES3 mRNA, average change vs vehicle, RT-PCR” value is recorded as −4.8 (−5.2 to −4.4); the “CYP1B1 mRNA, average change vs vehicle, RT-PCR” value is 256 (236.3 to 277.3). Besides, in data set [1], the “CYP3A9 mRNA, average change vs vehicle, RT-PCR” value was −1024 (−1201.8 to −872.5); the “SERPIN7A mRNA, average change vs vehicle, RT-PCR” value is on record as −26.6 (−30.2 to −23.4); the “SST mRNA, average change vs vehicle, RT-PCR” value is recorded as −36.8 (−46.4 to −29.1). In data set [2], the “C-CAM4 mRNA, average change vs vehicle, Microarray” value is recorded as 133.4 (112.1 to 154.7); the “CAP2 mRNA, average change vs vehicle, Microarray” value is 53.6 (31.1 to 76.1); the “CES3 mRNA, average change vs vehicle, Microarray” value is −8.1 (−9.9 to −6.3); the “CYP1B1 mRNA, average change vs vehicle, Microarray” value is 676.3 (470.8 to 881.8). In data set [2], the “CYP3A9 mRNA, average change vs vehicle, Microarray” value is −35.4 (−53.4 to −17.4); the “SERPIN7A mRNA, average change vs vehicle, Microarray” value is −11.5 (−17.2 to −5.8); the “SST mRNA, average change vs vehicle, Microarray” value is given as −8 (−10.5 to −5.5). Moreover, the “liver findings after 2 years of exposure” value in data set [3] is “cholangiocarcinoma, hepatocellular adenoma, toxic hepatopathy, multinucleated hepatocytes, diffuse fatty change, and liver pigmentation”. The Liver levels in data set [4] is given as 18.3 ± 0.8 ng/g. In addition, in data set [5], the “Liver hypertrophy, incidence” value was 10 and the “Liver hypertrophy, severity in words” value was “mild to moderate”. Further, in data set [5] (setting [6]), the “Diffuse fatty change, mean severity score” value is 1.0 and the “Multinucleated hepatocytes, mean severity score” value is recorded as 1.0. In data set [5] (same doses), the “Liver hypertrophy, mean severity score” value was 2.3; the “Diffuse fatty change, incidence” value was 2; the “Multinucleated hepatocytes, incidence” value is 3; the “Pigmentation, incidence” value is 0.

Source of the values: paper PMC1247661 (Environmental Health Perspectives, 2004).
